Source: patent publication US10501464B2, “7-oxo-6-(sulfooxy)-1,6-diazabicyclo[3.2.1]octane-2-carboxamide containing compounds and their use in treating bacterial infections” (WOCKHARDT LIMITED, priority 2015, dated 2019)

Legend:
Assay in all cases: Antibacterial activity, MIC by agar dilution (CLSI)
Assay type in all cases: cell-based
E. coli M 50 = conditions: Escherichia coli, M50, E. coli M 50; compound tested alone; read-out: MIC
Method: (§1) The biological activity of representative compounds according to the invention against various bacterial strains was investigated. In a typical study, overnight grown bacterial cultures were diluted appropriately and inoculated on the agar media containing doubling dilutions of the test compounds. Observations for growth or no growth was performed after 16-20 hours of incubation at 35±2° C. in the ambient air. The overall procedure was performed as per Clinical and Laboratory Standards Institute (CLSI) recommendations, (Clinical and Laboratory Standards Institute (CLSI), Performance Standards for Antimicrobial Susceptibility Testing, 20th Informational Supplement, M07-A9, Volume 32, No. 2, 2012). Molten Mueller Hinton Agar (BD, USA) containing serial dilutions of each antibacterial agent were poured on to the plates and allowed to solidify. Appropriate suspensions from the freshly grown cultures were prepared in normal saline so that about 10^4CFU/spot of the organism was delivered on to the drug containing agar plates using automated multipoint inoculator (Mast, UK). The plates were incubated in Biochemical oxygen demand (BOD) incubator at 37° C. for 18 hours and then examined for growth.
(§2) Method for the determination of MIC: The Minimum Inhibitory Concentration (MIC) determination for the combinations was carried out in Muller Hinton Agar (MHA) (BD, USA) according to Clinical and Laboratory Standards Institute (CLSI) recommendations, (Clinical and Laboratory Standards Institute (CLSI), Performance Standards for Antimicrobial Susceptibility Testing, 20th Informational Supplement, M 100-S20, Volume 30, No. 1, 2010). In short, the test strains were adjusted to deliver about 10^4CFU per spot with a multipoint inoculator (Applied Quality Services, UK). The plates were poured with MHA containing doubling concentration range of representative compounds according to present invention. The plates were inoculated and were incubated at 35° C. for 18 hour. […] The Table 2 depicts the antibacterial activity profile of compounds according to present invention against various multidrug resistant bacterial strains.

E. coli 13352 = conditions: Escherichia coli, 13352, E. coli 13352; compound tested alone; read-out: MIC
Method: as §1, §2

P. mirabilis S 137B = conditions: Proteus mirabilis, S137B, compound tested alone, read-out: MIC
Method: as §1, §2

K. pneumoniae H 523 = conditions: Klebsiella pneumoniae, H523, K. pneumoniae H 523; compound tested alone; read-out: MIC
Method: as §1, §2

E. coli M 138 = conditions: Escherichia coli, M138, E. coli M 138; compound tested alone; read-out: MIC
Method: as §1, §2

E. coli M 49 = conditions: Escherichia coli, M49, E. coli M 49; compound tested alone; read-out: MIC
Method: as §1, §2

K. pneumoniae H 525 = conditions: Klebsiella pneumoniae, H525, K. pneumoniae H 525; compound tested alone; read-out: MIC
Method: as §1, §2

E. coli 7 MP = conditions: Escherichia coli, 7MP, compound tested alone, read-out: MIC
Method: as §1, §2

[1] = system: K. pneumoniae ATCC 700603; conditions: Klebsiella pneumoniae, ATCC700603, compound tested alone, read-out: MIC
Method: as §1, §2

E. coli M 36 = conditions: Escherichia coli, M36, E. coli M 36; compound tested alone; read-out: MIC
Method: as §1, §2

E. coli 13351 = conditions: Escherichia coli, 13351, E. coli 13351; compound tested alone; read-out: MIC
Method: as §1, §2

K. pneumoniae H 522 = conditions: Klebsiella pneumoniae, H522, K. pneumoniae H 522; compound tested alone; read-out: MIC
Method: as §1, §2

E. coli H 483 = conditions: Escherichia coli, H483, compound tested alone, read-out: MIC
Method: as §1, §2

E. coli 13353 = conditions: Escherichia coli, 13353, E. coli 13353; compound tested alone; read-out: MIC
Method: as §1, §2

K. pneumoniae H 521 = conditions: Klebsiella pneumoniae, H521, K. pneumoniae H 521; compound tested alone; read-out: MIC
Method: as §1, §2

MIC (E. coli M 50)	MIC (E. coli 13352)	MIC (P. mirabilis S 137B)	MIC (K. pneumoniae H 523)	MIC (E. coli M 138)	MIC (E. coli M 49)	MIC (K. pneumoniae H 525)	MIC (E. coli 7 MP)	MIC [1]	MIC (E. coli M 36)	MIC (E. coli 13351)	MIC (K. pneumoniae H 522)	MIC (E. coli H 483)	MIC (E. coli 13353)	MIC (K. pneumoniae H 521)	Compound
2 µg/mL	4 µg/mL	> 32 µg/mL	4 µg/mL	2 µg/mL	8 µg/mL	4 µg/mL	4 µg/mL	> 32 µg/mL	2 µg/mL	4 µg/mL	4 µg/mL	> 32 µg/mL	2 µg/mL	4 µg/mL	O=C(NOC[C@H]1C[C@H](n2ccnn2)CN1)[C@@H]1CC[C@@H]2CN1C(=O)N2OS(=O)(=O)O [Example 14]
2 µg/mL	2 µg/mL	> 32 µg/mL	4 µg/mL	2 µg/mL	16 µg/mL	4 µg/mL	8 µg/mL	> 32 µg/mL	2 µg/mL	4 µg/mL	4 µg/mL	> 32 µg/mL	2 µg/mL	4 µg/mL	O=C(NOC[C@H]1C[C@H](n2cnnn2)CN1)[C@@H]1CC[C@@H]2CN1C(=O)N2OS(=O)(=O)O [Example 12]
2 µg/mL	2 µg/mL	> 32 µg/mL	4 µg/mL	2 µg/mL	8 µg/mL	4 µg/mL	4 µg/mL	> 32 µg/mL	2 µg/mL	4 µg/mL	4 µg/mL	> 32 µg/mL	2 µg/mL	4 µg/mL	O=C(NOC[C@@H]1C[C@H](n2cnnn2)CN1)[C@@H]1CC[C@@H]2CN1C(=O)N2OS(=O)(=O)O [Example 4]

More lines, now with the values behind:

Compound	MIC (E. coli M 50)	MIC (E. coli 13352)	MIC (P. mirabilis S 137B)	MIC (K. pneumoniae H 523)	MIC (E. coli M 138)	MIC (E. coli M 49)	MIC (K. pneumoniae H 525)	MIC (E. coli 7 MP)	MIC [1]	MIC (E. coli M 36)	MIC (E. coli 13351)	MIC (K. pneumoniae H 522)	MIC (E. coli H 483)	MIC (E. coli 13353)	MIC (K. pneumoniae H 521)
Nc1cn([C@@H]2CN[C@H](CONC(=O)[C@@H]3CC[C@@H]4CN3C(=O)N4OS(=O)(=O)O)C2)cn1 [Example 16]	2 µg/mL	2 µg/mL	> 32 µg/mL	4 µg/mL	2 µg/mL	8 µg/mL	4 µg/mL	8 µg/mL	> 32 µg/mL	2 µg/mL	2 µg/mL	4 µg/mL	> 32 µg/mL	2 µg/mL	4 µg/mL
O=C(NOC[C@H]1C[C@H](n2ncnn2)CN1)[C@@H]1CC[C@@H]2CN1C(=O)N2OS(=O)(=O)O [Example 11]	2 µg/mL	2 µg/mL	> 32 µg/mL	4 µg/mL	2 µg/mL	16 µg/mL	2 µg/mL	8 µg/mL	> 32 µg/mL	2 µg/mL	4 µg/mL	4 µg/mL	> 32 µg/mL	2 µg/mL	4 µg/mL
O=C(NOC[C@H]1C[C@H](n2nccn2)CN1)[C@@H]1CC[C@@H]2CN1C(=O)N2OS(=O)(=O)O [Example 13]	2 µg/mL	2 µg/mL	> 32 µg/mL	2 µg/mL	1 µg/mL	8 µg/mL	2 µg/mL	4 µg/mL	> 32 µg/mL	1 µg/mL	2 µg/mL	2 µg/mL	> 32 µg/mL	1 µg/mL	2 µg/mL
O=C(NOC[C@@H]1C[C@H](n2ccnc2)CN1)[C@@H]1CC[C@@H]2CN1C(=O)N2OS(=O)(=O)O [Example 10]	1 µg/mL	2 µg/mL	> 32 µg/mL	2 µg/mL	1 µg/mL	4 µg/mL	2 µg/mL	4 µg/mL	> 32 µg/mL	1 µg/mL	2 µg/mL	2 µg/mL	> 32 µg/mL	1 µg/mL	2 µg/mL
